Values of other authors as cited in patent US6355457B1, “Genes for the biosynthesis of epothilones” (Novartis AG, priority 1998, dated 2002).

Tested on: human solid tumors
Conditions: in vivo

SMILES | activity against human solid tumors
CC(=O)O[C@@]12CO[C@@H]1C[C@H](O)[C@@]1(C)C(=O)[C@H](O)C3=C(C)[C@@H](OC(=O)[C@H](O)[C@@H](NC(=O)OC(C)(C)C)c4ccccc4)C[C@@](O)([C@@H](OC(=O)c4ccccc4)[C@H]21)C3(C)C [taxotere] | significant activity against various human solid tumors
CC(=O)O[C@H]1C(=O)[C@@]2(C)[C@H]([C@H](OC(=O)c3ccccc3)[C@]3(O)C[C@H](OC(=O)[C@H](O)[C@@H](NC(=O)c4ccccc4)c4ccccc4)C(C)=C1C3(C)C)[C@]1(OC(C)=O)CO[C@@H]1C[C@@H]2O [Taxol] | significant activity against various human solid tumors
